Laboratory results: patent US20160158307A1, “Potent and Efficient Cytotoxic Peptides and Antibody-Drug Conjugates thereof and Their Synthesis” (priority 2014, published 2016)
Numbered stars: 1 amine (or outer) side, 2 acyl side, 3 side chain; on linkers, the order of the positions; unused ones are H or OH. Square brackets hold non-standard residues; d marks the D form. Peptide text beside a SMILES is read from it. * marks the point of attachment. Butanoyl(3R-OMe,4S-NMe,4-Cy) = CO[C@H](CC(=O)[*:2])[C@H](C1CCCCC1)N(C)[*:1]; Dolaproine = CO[C@@H]([C@@H]1CCCN1)[C@@H](C)C(=O)O; X2 = CO[C@H](CC(=O)[*:2])[C@H](C1CCCC1)N(C)[*:1]; Dil = CC[C@H](C)[C@H](NC)[C@@H](CC(=O)O)OC; X1 = C[C@@H](N*)[C@@H](O)c1ccccc1; NMeV = CN[C@H](C(=O)O)C(C)C; Aib = CC(C)(N)C(=O)O; OtBu = CC(C)(C)O*

Columns and labels:
Type in all cases: cell-based, Human
Hela = assay: In vitro cell assay (Cell Titer Glo), Hela; settings: 6 days exposure
Experimental: (§1) In vitro cell assay is performed in a 96 well micro titer plate. Human tumor cell lines Hela, A549, MCF-7, HCC-1954 and SK-BR-3 are obtained from ATCC (American Type Culture Collection).
The cells were harvested respectively during the logarithmic growth period and counted with hemocytometer. The cell viability was over 98% by trypan blue exclusion. 90 μl of cell suspensions were added in to 96-well plates, the final cell density was reached to 3000 cells/well. Plates were incubated for 96 hours at 37° C., and 5% CO2.
(§2) To each well was added 10 μL, of DMSO diluted compound (10×). For the sentinel base T0 plate, to each well was added 100 μL Cell Titer Gloand the luminescence signals with Envision reading were recorded.
(§3) […] Plates are read with Envision after adding Cell Titer Glo to each well. IC50 values were calculated using GraphPad Prism 5.

A549 = assay: In vitro cell assay (Cell Titer Glo), A549
Experimental: as §1
The cells were harvested respectively during the logarithmic growth period and counted with hemocytometer. The cell viability was over 98% by trypan blue exclusion. 90 μl of cell suspensions were added in to 96-well plates, the final cell density was reached to 3000 cells/well. […]
as §2, §3

HCC1954 = assay: In vitro cell assay (Cell Titer Glo), HCC1954; settings: 6 days exposure
Experimental: as §1
The cells were harvested respectively during the logarithmic growth period and counted with hemocytometer. […] 90 μl of cell suspensions were added in to 96-well plates, the final cell density was reached to 3000 cells/well. […]
as §2, §3

SK-BR-3 = assay: In vitro cell assay (Cell Titer Glo), SK-BR-3; settings: 6 days exposure
Experimental: as §1
(§4) The cells were harvested respectively during the logarithmic growth period and counted with hemocytometer. […] 90 μl of cell suspensions were added in to 96-well plates, the final cell density was reached to 3000 cells/well. Plates were incubated for 96 hours at 37° C., and 5% CO2.
as §2, §3

MCF-7 = assay: In vitro cell assay (Cell Titer Glo), MCF-7
Experimental: as §1, §4, §2, §3

[1] = Homo sapiens, HeLa, 144 h, Table 2
[2] = Homo sapiens, HCC1954, 144 h, Table 2
[3] = Homo sapiens, SK-BR-3, 144 h, Table 2
[4] = Homo sapiens, HeLa, 144 h, Table 01
[5] = Homo sapiens, HCC1954, 144 h, Table 01
[6] = Homo sapiens, SK-BR-3, 144 h, Table 01
[7] = Table 3, payloads and related ADCs, Her2 positive

| Structure (SMILES) | IC50 (Hela; [1]) [nM] | IC50 (A549; Homo sapiens, A549, Table 2) [nM] | IC50 (HCC1954; [2]) [nM] | IC50 (SK-BR-3; [3]) [nM] | IC50 (MCF-7; Homo sapiens, MCF7, Table 2) [nM] | IC50 (Hela; [4]) [nM] | IC50 (A549; Homo sapiens, A549, Table 01) [nM] | IC50 (HCC1954; [5]) [nM] | IC50 (SK-BR-3; [6]) [nM] | IC50 (MCF-7; Homo sapiens, MCF7, Table 01) [nM] | further results |
| --- | --- | --- | --- | --- | --- | --- | --- | --- | --- | --- | --- |
| N.N.[Cl][Pt][Cl] [Cisplatin, reference compound] |  |  |  |  |  |  |  |  |  |  | IC50 (Hela; Table 01): 182 nM; IC50 (Hela; Table 2): 182 nM; IC50 (A549; Table 01, 6 days exposure): 2830 nM; IC50 (A549; Table 2, 6 days exposure): 2830 nM; IC50 (HCC1954; Table 01): 3270 nM; IC50 (HCC1954; Table 2): 3270 nM; IC50 (SK-BR-3; Table 01): 854 nM; IC50 (SK-BR-3; Table 2): 854 nM; IC50 (MCF-7; Table 01, 6 days exposure): 3550 nM; IC50 (MCF-7; Table 2, 6 days exposure): 3550 nM |
| CO[C@H]([C@@H](C)C(=O)N[C@H](C)[C@@H](O)c1ccccc1)[C@@H]1CCCN1C(=O)C[C@@H](OC)[C@H](C1CCCC1)N(C)C(=O)[C@@H](NC(=O)C(C)(C)N)C(C)C [Compound 17, (S)-2-(2-amino-2-methylpropanamido)-N-((1S,2R)-1-cyclopentyl-4-((S)-2-((1R,2R)-3-((1S,2R)-1-hydroxy-1-phenylpropan-2-ylamino)-1-methoxy-2-methyl-3-oxopropyl)pyrrolidin-1-yl)-2-methoxy-4-oxobutyl)-N,3-dimethylbutanamide] | 1.56 | 6.32 | 0.623 | 0.839 | 4.75 |  |  |  |  |  |  |
| CO[C@H]([C@@H](C)C(=O)N[C@H](C)[C@@H](O)c1ccccc1)[C@@H]1CCCN1C(=O)C[C@@H](OC)[C@H](C1CCCCC1)N(C)C(=O)[C@@H](NC(=O)C(C)(C)N)C(C)C [Compound 18, (S)-2-(2-amino-2-methylpropanamido)-N-((1S,2R)-1-cyclohexyl-4-((S)-2-((1R,2R)-3-((1S,2R)-1-hydroxy-1-phenylpropan-2-ylamino)-1-methoxy-2-methyl-3-oxopropyl)pyrroli-din-1-yl)-2-methoxy-4-oxobutyl)-N,3-dimethylbutanamide] | 0.478 | 1.14 | 0.466 | 0.805 | 3.19 |  |  |  |  |  |  |
| CO[C@H]([C@@H](C)C(=O)N[C@@H](Cc1ccccc1)C(=O)OC(C)(C)C)[C@@H]1CCCN1C(=O)C[C@@H](OC)[C@H](C1CCCC1)N(C)C(=O)[C@@H](NC(=O)C(C)(C)N)C(C)C [Compound 21, (S)-tert-butyl2-((2R,3R)-3-((S)-1-((3R,4S)-4-((S)-2-(2-amino-2-methylpropanamido)-N,3-dimethylbutanamido)-4-cyclopentyl-3-methoxybutanoyl)pyrrolidin-2-yl)-3-methoxy-2-methylpropanamido)-3-phenylpropanoate] (H-[Aib]V[X2][Dolaproine]F-OtBu) | 0.563 | 1.13 | 0.296 | 0.223 | 1.3 |  |  |  |  |  |  |
| CO[C@H]([C@@H](C)C(=O)N[C@@H](Cc1ccccc1)C(=O)OC(C)(C)C)[C@@H]1CCCN1C(=O)C[C@@H](OC)[C@H](C1CCCCC1)N(C)C(=O)[C@@H](NC(=O)C(C)(C)N)C(C)C [Compound 22, (S)-tert-butyl-2-((2R,3R)-3-((S)-1-((3R,4S)-4-((S)-2-(2-amino-2-methylpropanamido)-N, 3-dimethylbutanamido)-4-cyclohexyl-3-methoxybutanoyl)pyrrolidin-2-yl)-3-methoxy-2-methylpropanamido)-3-phenylpropanoate] (H-[Aib]V[Butanoyl(3R-OMe,4S-NMe,4-Cy)][Dolaproine]F-OtBu) | 0.567 | 1.08 | 0.112 | 0.066 | 0.529 |  |  |  |  |  |  |
| CO[C@H]([C@@H](C)C(=O)N[C@@H](Cc1ccccc1)c1nccs1)[C@@H]1CCCN1C(=O)C[C@@H](OC)[C@H](C1CCCC1)N(C)C(=O)[C@@H](NC(=O)C(C)(C)N)C(C)C [Compound 23] | 0.484 | 2.83 | 0.405 | 0.693 | 2.9 |  |  |  |  |  |  |
| CO[C@H]([C@@H](C)C(=O)N[C@@H](Cc1ccccc1)c1nccs1)[C@@H]1CCCN1C(=O)C[C@@H](OC)[C@H](C1CCCCC1)N(C)C(=O)[C@@H](NC(=O)C(C)(C)N)C(C)C [Compound 24, (S)-2-(2-amino-2-methylpropanamido)-N-((1S,2R)-1-cyclohexyl-2-methoxy-4-((S)-2-((1R,2R)-1-methoxy-2-methyl-3-oxo-3-((S)-2-phenyl-1-(thiazol-2-yl)ethylamino)propyl)pyrrolidin-1-yl)-4-oxobutyl)-N,3-dimethylbutanamide] | 0.571 | 3.34 | 0.31 | 0.524 | 1.99 |  |  |  |  |  |  |
| CN[C@H](C(=O)N[C@H](C(=O)N(C)[C@@H](C1CCCC1)[C@@H](CC(=O)N1CCC[C@H]1[C@H](OC)[C@@H](C)C(=O)N[C@H](C)[C@@H](O)c1ccccc1)OC)C(C)C)C(C)C [Compound 33] |  |  |  |  |  | 0.43 | 2.05 | 0.146 | 0.381 | 1.36 |  |
| CN[C@H](C(=O)N[C@H](C(=O)N(C)[C@@H](C1CCCCC1)[C@@H](CC(=O)N1CCC[C@H]1[C@H](OC)[C@@H](C)C(=O)N[C@H](C)[C@@H](O)c1ccccc1)OC)C(C)C)C(C)C [Compound 34] |  |  |  |  |  | 0.391 | 1.67 | 0.192 | 0.333 | 1.44 |  |
| CN[C@H](C(=O)N[C@H](C(=O)N(C)[C@@H](C1CCCC1)[C@@H](CC(=O)N1CCC[C@H]1[C@H](OC)[C@@H](C)C(=O)N[C@@H](Cc1ccccc1)c1nccs1)OC)C(C)C)C(C)C [Compound 35] |  |  |  |  |  | 0.102 | 0.68 | 0.119 | 0.191 | 0.914 |  |
| CN[C@H](C(=O)N[C@H](C(=O)N(C)[C@@H](C1CCCCC1)[C@@H](CC(=O)N1CCC[C@H]1[C@H](OC)[C@@H](C)C(=O)N[C@@H](Cc1ccccc1)c1nccs1)OC)C(C)C)C(C)C [Compound 36] |  |  |  |  |  | 0.143 | 0.567 | 0.103 | 0.197 | 0.841 |  |
| CN[C@H](C(=O)N[C@H](C(=O)N(C)[C@@H](C1CCCC1)[C@@H](CC(=O)N1CCC[C@H]1[C@H](OC)[C@@H](C)C(=O)N[C@@H](Cc1ccccc1)C(=O)OC(C)(C)C)OC)C(C)C)C(C)C [Compound 37] (H-[NMeV]V[X2][Dolaproine]F-OtBu) |  |  |  |  |  | 0.198 | 0.863 | 0.095 | 0.118 | 0.456 |  |
| CN[C@H](C(=O)N[C@H](C(=O)N(C)[C@@H](C1CCCCC1)[C@@H](CC(=O)N1CCC[C@H]1[C@H](OC)[C@@H](C)C(=O)N[C@@H](Cc1ccccc1)C(=O)OC(C)(C)C)OC)C(C)C)C(C)C [Compound 38] (H-[NMeV]V[Butanoyl(3R-OMe,4S-NMe,4-Cy)][Dolaproine]F-OtBu) |  |  |  |  |  | 0.078 | 0.275 | 0.128 | 0.097 | 0.642 |  |
| CC[C@H](C)[C@@H]([C@@H](CC(=O)N1CCC[C@H]1[C@H](OC)[C@@H](C)C(=O)N[C@H](C)[C@@H](O)c1ccccc1)OC)N(C)C(=O)[C@@H](NC(=O)[C@@H](NC)C(C)C)C(C)C [MMAE, monomethylauristatin E, reference compound] (H-[NMeV]V[Dil][Dolaproine]-X1) |  |  |  |  |  |  |  |  |  |  | IC50 (Hela; Table 01): 0.1 nM; IC50 (A549; Table 01, 6 days exposure): 0.518 nM; IC50 (HCC1954; Table 01): 0.073 nM; IC50 (HCC1954; [7]): 0.073 nM; IC50 (SK-BR-3; Table 01): 0.103 nM; IC50 (SK-BR-3; [7]): 0.103 nM; IC50 (MCF-7; Table 01, 6 days exposure): 0.321 nM; IC50 (MCF-7; Table 3, payloads and related ADCs, 6 days exposure, does not over-express Her2): 0.321 nM |
